Experimental data reported in patent EP2036556A1, “Piperidone derivatives and medical uses thereof” (Heinrich-Pette-Institut, priority 2007, dated 2009).
Where two headings read alike, the source gives them in different places.

Columns and labels:
[1] = system: macrophage cell line J774.1; experiment: Macrophage assay (Alamar Blue cytotoxicity); type: cell-based; conditions: for EC50: J774.1 macrophages, after 48h, read-out: ED50 [µM] Macrophage after 48h
Description: The macrophage cell line J774.1 was maintained in complete Click RPMI medium. For the experimental procedures cells were detached from the flasks with a rubber police, washed twice with PBS and suspended at 2 x 10^6 cells mL^-1 in complete Click RPMI medium. […] Following the addition of 20 µl of Alamar Blue, the plates were further incubated at similar conditions. The plates were then read 24 and 48 h later. Control experiments to examine the effect of cell density, incubation time and DMSO concentration were performed. Absorbance in the absence of compounds was set as 100 % of growth control.

[2] = system: T. brucei brucei laboratory strain TC 221; experiment: Trypanosome assay (in vitro cytotoxicity, Alamar Blue); type: cell-based, Trypanosoma brucei brucei
Description: Parasite culture: Trypomastigote forms of T. brucei brucei laboratory strain TC 221 were cultured in Baltz medium according to standard conditions.^36 In vitro cytotoxicity assays: The test compounds were dissolved in DMSO or 0.1 M NaOH. A defined number of parasites (10^4 trypanosomes per mL) were exposed in test chambers of 96-well plates to various concentrations of the test substances in a final volume of 200 µl. Positive (trypanosomes in culture medium) and negative controls (test substance without trypanosomes) were run with each plate. The plates were then incubated at 37°C in an atmosphere of 5 % CO2 for a total time period of 72 h. […] The effect of test substances was quantified in ED50 values by linear interpolation^18 of three different measurements. The activity of the test substances was measured by light absorption in an MR 700 Microplate Reader at a wavelength of 550 nm with a reference wave length of 630 nm, using the Alamar Blue®.

[3] = Trypanosoma brucei, strain TC 221, 10^4 trypanosomes per mL, incubated 72 h, reading at 48 h, Alamar Blue, read-out: ED50 [µM] T. brucei brucei
[4] = strain TC 221, 10^4 trypanosomes per mL, incubated 72 h, reading at 48 h, Alamar Blue, read-out: ED50 [µM] T. brucei brucei
[5] = reference substances, for comparison (title of Table 1), read-out: ED50 (T. brucei brucei)

SMILES	EC50 [2, 3] [µM]	EC50 ([1]; Mus musculus) [µM]	other results
C[C@@H]1[C@H](O)[C@@H](C)/C=C/C=C/C=C/C=C/C=C/C=C/C=C/[C@H](O[C@@H]2O[C@H](C)[C@@H](O)[C@H](N)[C@@H]2O)C[C@@H]2O[C@](O)(C[C@@H](O)C[C@@H](O)[C@H](O)CC[C@@H](O)C[C@@H](O)CC(=O)O[C@H]1C)C[C@H](O)[C@H]2C(=O)O [Amphotericin B, reference compound]			IC50 ([1]; reference substance, for comparison, read-out: IC50 (J774.1 Macrophages)): 68.6 ± 16.5 µM
COC(=O)C1C(=O)C(C(=O)OC)[C@H](c2ccccn2)N[C@@H]1c1ccccn1 (stereo partly drawn) [Compound 1, Dimethyl (2R,6S)-4-oxo-2,6-di(pyridin-2-yl)piperidine-3,5-dicarboxylate]	28.1 ± 1.52	> 100	
C=CCN1[C@H](c2ccccn2)C(C(=O)OC)C(=O)C(C(=O)OC)[C@@H]1c1ccccn1 (stereo partly drawn) [Compound 2, Dimethyl (2R,6S)-1-allyl-4-oxo-2,6-di(pyridin-2-yl)piperidine-3,5-dicarboxylate]	26.5 ± 7.64	> 100	
COC(=O)C1C(=O)C(C(=O)OC)[C@H](c2ccccn2)N(CCO)[C@@H]1c1ccccn1 (stereo partly drawn) [Compound 3, Dimethyl (2R,6S)-1-(2-hydroxyethyl)-4-oxo-2,6-di(pyridin-2-yl)piperidine-3,5-dicarboxylate]	22.8 ± 5.57	31.15 ± 0.14	
COC(=O)C1C(=O)C(C(=O)OC)[C@H](c2ccccn2)N(CC(C)O)[C@@H]1c1ccccn1 (stereo partly drawn) [Compound 4, Dimethyl (2R,6S)-1-(2-hydroxypropyl)-4-oxo-2,6-di(pyridin-2-yl)piperidine-3,5-dicarboxylate]	18.3 ± 2.59	32 ± 0.63	
COC(=O)C1C(=O)C(C(=O)OC)[C@H](c2ccccn2)N(CCOCCO)[C@@H]1c1ccccn1 (stereo partly drawn) [Compound 5, Dimethyl (2R,6S)-1-[2-(2-hydroxyethoxy)ethyl]-4-oxo-2,6-di(pyridin-2-yl)piperidine-3,5-dicarboxylate]	24.1 ± 4.27	38.5 ± 6.17	
COC(=O)C1C(=O)C(C(=O)OC)[C@H](c2ccccn2)N(CCCC(=O)O)[C@@H]1c1ccccn1 (stereo partly drawn) [Compound 6, 4-[(2R,6S)-3,5-bis(methoxycarbonyl)-4-oxo-2,6-di(pyridin-2-yl)piperldin-1-yl]butanoic acid]			EC50 [2, 4]: 19.3 ± 2.28 µM; EC50 [1]: 46 ± 5.92 µM
COC(=O)C1C(=O)C(C(=O)OC)[C@H](c2ccccn2)N(CCCCCCCC(=O)O)[C@@H]1c1ccccn1 (stereo partly drawn) [Compound 7, 8-[(2R,6S)-3,5-bis(methoxycarbonyl)-4-oxo-2,6-di(pyridin-2-yl)piperidin-1-yl]octanoic acid]	24 ± 4.48	33.8 ± 2.81	
COC(=O)C1C(=O)C(C(=O)OC)[C@H](c2ccccn2)N(Cc2ccccn2)[C@@H]1c1ccccn1 (stereo partly drawn) [Compound 8, Dimethyl (2R,6S)-4-oxo-2,6-di(pyridine-2-yl)-1-(pyridine-2-yl-methyl)-piperidine-3,5-diearboxylate]			EC50 [2, 4]: 4.62 ± 1.39 µM; EC50 [1]: 29.9 ± 2.32 µM
COC(=O)C1C(=O)C(C(=O)OC)[C@H](c2ccccn2)N(Cc2ccccc2)[C@@H]1c1ccccn1 (stereo partly drawn) [Compound 9, Dimethyl (2R,6S)-1-benzyl-4-oxo-2,6-di(pyridin-2-yl)piperidine-3,5-dicarboxylate]	11.1 ± 1.91	34 ± 1.56	
C=CCN1[C@@H](c2ccc([N+](=O)[O-])cc2)C(C(=O)OC)=C(O)C(C(=O)OC)[C@@H]1c1ccc([N+](=O)[O-])cc1 (stereo partly drawn) [Compound 10, Dimethyl (2R,6S)-1-allyl-4-hydroxy-2,6-bis(4-nitrophenyl)-1,2,3,6-tetrahydropyridine-3,5-dicarboxylate]	2.41 ± 0.39	50.3 ± 11.7	
COC(=O)C1C(=O)C(C(=O)OC)[C@H](c2cccc([N+](=O)[O-])c2)N(Cc2ccc(Cl)cc2)[C@@H]1c1cccc([N+](=O)[O-])c1 (stereo partly drawn) [Compound 14, Dimethyl (2R,6S)-1-(4-chlorobenzyl)-2,6-bis(3-nitrophenyl)-4-oxopiperidine-3,5-dicarboxylate]	10.6 ± 2.83	46.6 ± 9.86	
COC(=O)C1C(=O)C(C(=O)OC)[C@H](c2cccc([N+](=O)[O-])c2)N(Cc2ccc(OC)cc2)[C@@H]1c1cccc([N+](=O)[O-])c1 (stereo partly drawn) [Compound 15, Dimethyl (2R,6S)-1-(4-methoxybenzyl)-2,6-bis(3-nitrophenyl)-4-oxopiperidine-3,5-dicarboxylate]	3.93 ± 1.1	> 100	
COC(=O)C1C(=O)C(C(=O)OC)[C@H](c2cccc([N+](=O)[O-])c2)N(Cc2ccc(C)cc2)[C@@H]1c1cccc([N+](=O)[O-])c1 (stereo partly drawn) [Compound 16, Dimethyl (2R,6S)-1-(4-methylbenzyl)-2,6-bis(3-nitrophenyl)-4-oxopiperidine 3,5-dicarboxylate]	2.66 ± 0.49	49.8 ± 16.8	
COC(=O)C1C(=O)C(C(=O)OC)[C@H](c2cccc([N+](=O)[O-])c2)N(Cc2ccccc2)[C@@H]1c1cccc([N+](=O)[O-])c1 (stereo partly drawn) [Compound 17, Dimethyl (2R,6S)-1-benzyl-2,6-bis(3-nitrophenyl)-4-oxopiperidine-3,5-dicarboxylate]	2.49 ± 0.79	> 100	
C=CCN1[C@H](c2ccccc2)C(C(=O)OC)C(=O)C(C(=O)OC)[C@@H]1c1ccccc1 (stereo partly drawn) [Compound 18, Dimethyl (2R,6S)-1-allyl-4-oxo-2,6-diphenylpiperidine-3,5-dicarboxylate]	4.86 ± 0.63	> 100	
COC(=O)C1=C(O)C[C@@H](c2ccccn2)N(Cc2ccccc2)[C@H]1c1ccccn1 [Compound 19, Methyl (2'R,6'S)-1'-benzyl-4'-hydroxy-1',2',5',6'-tetrahydro-2,2';6',2''-terpyridine-3'-carboxylate]	1.37 ± 0.02	33.2 ± 0.69	
COC(=O)C1=C(O)C[C@@H](c2ccccn2)N(Cc2ccc(C)cc2)[C@H]1c1ccccn1 [Compound 20, Methyl (2'R,6'S)-4'-hydroxy-1'-(4-methylbenzyl)-1',2',5',6'-tetrahydro-2,2';6',2''-terpyridine-3'-carboxylate]	0.47 ± 0.17	34.9 ± 0.45	
COC(=O)C1=C(O)C[C@@H](c2ccccn2)N(Cc2ccc(OC)cc2)[C@H]1c1ccccn1 [Compound 22, Methyl (2'R,6'S)-4'-hydroxy-1'-(4-methoxybenzyl)-1',2',5',6'-tetrahydro-2,2';6',2''-terpyridine-3'-carboxylate]	0.43 ± 0.17	29.9 ± 0.33	
COC(=O)C1=C(O)C[C@@H](c2ccccn2)N(Cc2cccc(OC)c2)[C@H]1c1ccccn1 [Compound 23, Methyl (2'R,6'S)-4'-hydroxy-1'-(3-methoxybenzyl)-1',2',5',6'-tetrahydro-2,2';6',2''-terpyridine-3'-carboxylate]	> 100	> 100	
ON=C1CCN(CCCc2ccccc2)CC1 [Compound 48, 1-(3-Phenylpropyl)-4-piperidine oxime]			activity against trypanosomes (in words) ([2]; statement of the discussion): neither the oximes 48 and 52 nor the oxime ether 49 are active against trypanosomes
NCCCC(N)(C(=O)O)C(F)F (stereo not shown) [Eflornitine, reference compound]			EC50 [2, 5]: 22.9 µM
N=C(N)c1ccc(OCCCCCOc2ccc(C(=N)N)cc2)cc1 [Pentamidine diisothionate, reference compound]			EC50 [2, 5]: 0.0027 µM
Cc1ccc(C(=O)Nc2ccc(S(=O)(=O)O)c3cc(S(=O)(=O)O)cc(S(=O)(=O)O)c23)cc1NC(=O)c1cccc(NC(=O)Nc2cccc(C(=O)Nc3cc(C(=O)Nc4ccc(S(=O)(=O)O)c5cc(S(=O)(=O)O)cc(S(=O)(=O)O)c45)ccc3C)c2)c1 [Suramine, reference compound]			EC50 ([2]; Trypanosoma brucei, reference substances, for comparison (title of Table 1), read-out: ED50 (T. brucei brucei)): 0.3 µM
